Test results published in US20150051283A1, “COMPOSITION AND METHOD FOR INHIBITION OF PKNG FROM MYCOBACTERIUM TUBERCULOSIS” (priority 2013, published 2015).

Key:
Format in all cases: biochemical
PknG [1] = target: T1, PknG (Mycobacterium tuberculosis, UniProt P9WI73)
T1 construct: Full-length PknG was overexpressed in Escherichia coli BL21(DE3) cells; made in house; host or cells: Escherichia coli BL21(DE3)

PknG [2] = target: T1, PknG; assay: Reversibility of PknG inhibition by thiol reagents (DTT, GSH); settings: for effect of thiol reagent per se on control PknG kinase activity: 42 mM DTT or 24 mM GSH
PknG [3] = target: T1, PknG; assay: Time course of PknG inhibition, Kinase Glo Plus luminescent kinase assay; settings: PknG 10 μM, 50 μM OA-NO2, pre-incubation 0 to 30 min, 25° C
Method: (§1) FIGS. 4A-4D are a series of graphs depicting PknG kinase activity inhibition by OA-NO2, in which FIG. 4A depicts GarA phosphorylation by PknG by linear MALDI-TOF mass spectrum of: GarA (m/z 17145, dashed line), GarA phosphorylated by PknG using a molar ratio PknG:GarA of 1:20 (m/z 17222, grey line) and GarA phosphorylated by PknG pretreated with 50 μM OA-NO2 for 10 minutes (m/z 17143, black line), FIG. 4B is a series of three panels depicting PknG autophosphorylation with an upper panel illustrating linear MALDI-TOF spectrum of native PknG after tryptic digestion showing basal autophoshporylation pattern. Unphosphorylated peptide (m/z 5395.8), monophosphorylated (m/z 5475.4) and diphosphorylated species (m/z 5555.1) are detected as expected, a middle panel depicting linear MALDI-TOF spectrum of PknG after incubation with ATP and Mn^2+ and further typtic digestion (autophoshorylation positive control). […] After 10 minutes of incubation enzyme activities were determined. Samples were analyzed in triplicates; and FIG. 4D depicts time dependent inhibition of PknG by OA-NO2. […] At the indicated time points aliquots of control and treated PknG were removed, and enzyme inhibition was determined using Kinase Glo® by comparison with control activity. Samples were analyzed in triplicates. […]

PknG Rbx domain = target: T2, PknG Rbx domain (Mycobacterium tuberculosis, UniProt P9WI73); assay: Iron release from Rbx domain of PknG (BPS spectrophotometric determination); settings: 50 μM of OA-NO2
T2 construct: Full-length PknG was overexpressed in Escherichia coli BL21(DE3) cells; made in house; host or cells: Escherichia coli BL21(DE3)
T2 sequence (P9WI73 whole entry, the tested form may be a part): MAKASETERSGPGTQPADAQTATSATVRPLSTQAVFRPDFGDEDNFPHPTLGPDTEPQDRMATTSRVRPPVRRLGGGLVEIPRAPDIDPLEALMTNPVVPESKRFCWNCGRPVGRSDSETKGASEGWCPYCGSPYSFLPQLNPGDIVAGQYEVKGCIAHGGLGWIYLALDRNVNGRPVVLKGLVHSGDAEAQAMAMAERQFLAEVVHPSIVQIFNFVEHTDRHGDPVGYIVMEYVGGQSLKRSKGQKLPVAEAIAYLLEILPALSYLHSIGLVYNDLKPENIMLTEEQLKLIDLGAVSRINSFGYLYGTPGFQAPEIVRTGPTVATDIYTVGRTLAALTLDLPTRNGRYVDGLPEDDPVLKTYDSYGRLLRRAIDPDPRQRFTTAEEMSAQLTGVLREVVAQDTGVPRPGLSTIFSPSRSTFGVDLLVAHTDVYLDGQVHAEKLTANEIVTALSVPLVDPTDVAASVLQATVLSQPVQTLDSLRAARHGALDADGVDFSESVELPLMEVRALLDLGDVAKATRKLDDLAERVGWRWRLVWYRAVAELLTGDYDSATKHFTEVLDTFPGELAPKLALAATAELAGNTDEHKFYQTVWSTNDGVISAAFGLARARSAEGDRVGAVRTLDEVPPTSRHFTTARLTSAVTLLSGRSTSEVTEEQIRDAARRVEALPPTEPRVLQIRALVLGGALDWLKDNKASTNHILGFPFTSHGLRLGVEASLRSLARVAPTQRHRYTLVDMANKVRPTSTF

PknG [4] = target: T1, PknG; assay: PknG autophosphorylation (MALDI-TOF MS of tryptic phosphopeptides); settings: 30 μM, 10 min before autophosphorylation reaction
Method: as §1

T1 sequence (P9WI73 whole entry): as the sequence (P9WI73 whole entry, the tested form may be a part) above

In the case of “9- and 10-nitro-octadeca-9-cis-enoic acid [OA-NO2]”, the “ability to phosphorylate GarA” value (PknG [1]; 30 μM, molar ratio OA-NO2:PknG 3:1, 10 minutes of preincubation) is reported as “clearly decreased”, the IC50 (PknG [1]; PknG 8 μM, OA-NO2 0 to 80 μM, 10 min pre-incubation, 70 mM ammonium bicarbonate pH 8.0, 25° C, read-out: concentration at which 50% of enzyme inhibition was reached) is reported as 35 µM and the “kinase activity of PknG” value (PknG [1]; micromolar concentrations, molar excess ranging from 1:1 to 1:3) is reported as “noticeably inhibited”. For the same compound, the “effect of OA-NO2 on PknG activity (reversibility)” value (PknG [2]) was “irreversible”, the “kinase activity versus pre-incubation time” value (PknG [3]) was “decreased kinase activity in a time-dependent manner” and the “iron present at the Rbx domain released” value (PknG Rbx domain) was 70%. For the same compound, the “autocatalytic (autophosphorylation) activity” value (PknG [4]) was “inhibited”.
In the case of N[C@@H](CCC(=O)N[C@@H](CS)C(=O)NCC(=O)O)C(=O)O [GSH], the “effect of thiol reagent per se on control PknG kinase activity” value (PknG [2]) is reported as “no effect”.
With CCCCCCCCC=CCCCCCCCC(=O)O [oleic acid, 9-octadecenoic acid, reference compound] the “effect on kinase activity (control)” value (PknG [1]; equivalent concentrations to OA-NO2, data not shown) was “no effect”.
With O[C@@H](CS)[C@@H](O)CS [DTT] the “effect of thiol reagent per se on control PknG kinase activity” value (PknG [2]) was “no effect”.
NC(=O)CI [IAM, iodoacetamide, reference compound] was tested, and the “effect on kinase activity” value (PknG [1]; IAM treatment (up to 150 μM, PknG 10 μM), only free Cys156 modified) was “without affecting kinase activity”.
